This note sets out measurements from US5231103A, “Quinolin-2-yl-methoxybenzylhydroxyureas” (Bayer Aktiengesellschaft, priority 1991, dated 1993).

This assay has as its target T1, 5-LO (Homo sapiens, UniProt P09917).
T1 construct: release of leukotriene B4 (LTB4) in polymorphonuclear human leucocytes (PMN); endogenous in cells; host or cells: human polymorphonuclear leucocytes (PMN)
T1 sequence (P09917 1-674): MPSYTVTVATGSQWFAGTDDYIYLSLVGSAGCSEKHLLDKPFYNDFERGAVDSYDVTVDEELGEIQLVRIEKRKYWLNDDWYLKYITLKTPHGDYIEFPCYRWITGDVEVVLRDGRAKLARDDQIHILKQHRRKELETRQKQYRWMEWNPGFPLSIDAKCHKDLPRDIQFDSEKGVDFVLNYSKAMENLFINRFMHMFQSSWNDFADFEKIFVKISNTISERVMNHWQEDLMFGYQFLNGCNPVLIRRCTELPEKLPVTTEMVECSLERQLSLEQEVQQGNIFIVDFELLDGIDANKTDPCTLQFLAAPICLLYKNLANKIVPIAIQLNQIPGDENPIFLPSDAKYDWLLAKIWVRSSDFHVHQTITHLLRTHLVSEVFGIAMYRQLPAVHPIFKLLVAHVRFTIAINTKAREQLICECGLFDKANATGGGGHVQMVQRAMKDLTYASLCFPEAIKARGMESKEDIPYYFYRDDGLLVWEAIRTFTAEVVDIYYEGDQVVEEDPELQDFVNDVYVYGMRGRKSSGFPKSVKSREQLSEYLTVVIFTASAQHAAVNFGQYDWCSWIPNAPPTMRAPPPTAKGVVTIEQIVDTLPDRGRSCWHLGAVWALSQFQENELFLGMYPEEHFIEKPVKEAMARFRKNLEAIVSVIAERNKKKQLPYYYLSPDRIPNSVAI
In words: lipoxygenase inhibition: release of leukotriene B4 (LTB4) in polymorphonuclear human leucocytes (PMN) after Ca ionophore, by reverse phase HPLC. In kind it is cell-based. The conditions noted are these: LTB4 release in human PMN after addition of substance and Ca ionophore; RP-HPLC. How it is done: As a measure of lipoxygenase inhibition, the release of leukotriene B4 (LTB4) in polymorphonuclear human leucocytes (PMN) after addition of substances and Ca ionophore was determined by means of reverse phase HPLC according to Borgeat, P. et al., Proc. Nat. Acad. Sci., 76, 2148-2152 (1979).

Structures are written as SMILES.

A word on the IC50: it is the point on the concentration scale where inhibition reaches its midpoint. A lower IC50 goes with greater potency. In turn, `NC(=O)N(O)C(c1ccc(OCc2ccc3ccccc3n2)cc1)C1CCCCC1` (centres unmarked) [Example 1, N-[4-(Quinolin-2-yl-methoxy)phenyl-cyclohexyl]methyl-N-hydroxyurea] showed an IC50 of 250 nM. Under `NC(=O)N(O)C(c1ccc(OCc2ccc3ccccc3n2)cc1)C1CCCC1` (centres unmarked) [Example 2, N-[4-(Quinolin-2-yl-methoxy)phenyl-cyclopentyl]methyl-N-hydroxyurea] stands 1200 nM.
